Measured values from patent US20210162050A1, “TOPICAL FORMULATIONS BASED ON IONIC SPECIES FOR SKIN TREATMENT” (The Regents of the University of California, priority 2016, published 2021).

Experiments:
[1] = tested on: HEKa cells; experiment: Biocompatibility in cell culture, MTT Cell Proliferation Assay; format: cell-based, human; details: equal concentrations, 4 hours; differences not statistically significant (p >0.05)
Method: All cell culture materials were acquired from Life Technologies (Grand Island, N.Y.). Human adult epidermal keratinocytes were cultured in EpiLife Medium supplemented with Human Keratinocyte Growth Supplement, 25 U/mL penicillin, 25 μg/mL streptomycin, and 50 μg/mL neomycin. Cultures were grown at 37° C. with 5% CO2.
Cells were seeded in a 96-well microplate (Corning Inc., Corning, N.Y.) and were allowed to attach and proliferate. Once cells reached ˜80% confluency, the media was removed and FAM-siRNA, robed-FAM-siRNA, or benzyl dimethyl alkyl ammonium chloride salts in media was added. Media alone was used as a control. Cells were incubated with test solution for 4 hours at 37° C. and 5% CO2. After incubation, test solutions were removed, cells were washed with HBSS, and fresh media was added to each well. Cells were allowed to proliferate overnight before being assessed for viability using the MTT Cell Proliferation Assay (ATCC, Manassas, Va.). Viability was determined according to the manufacturer's recommended protocol using a SAFIRE, XFLUOR4, V4.50 microplate reader (Tecan Group Ltd, Morrisville, N.Y.).

[2] = chloride salt; Hansch et al. 1995; cited from earlier work
[3] = Octanol-water partitioning coefficients of cation paired hyaluronic acid (HA); format: physicochemical; details: cation paired with HA
Method: 5 mL ddH2O may be mixed overnight at room temperature with 5 mL octanol. A complex containing a macromolecular anion complexed with sodium ions or with cations with alkyl chains is then added to the mixture and again allowed to mix overnight at room temperature in the dark. After overnight incubation, the solution is centrifuged to separate the octanol layer and water layer. The concentration of the macromolecular anion present in each layer is quantified by UV-Vis spectroscopy, or fluorescence spectroscopy, using, for example, a SAFIRE, XFLUOR4, V4.50 microplate reader (Tecan Group Ltd, Morrisville, N.Y.). For detection of siRNA, the fluorescence detection may be performed at an excitation of 485 nm and an emission of 520 nm, and the method may be validated for linearity, accuracy, and precision. Log Po/w may be calculated as the logarithm of the ratio of fluorescence in the octanol layer compared to the water layer.
Cation paired HA was prepared according to methods described in Example 1.

Row | Compound | toxicity of free salts versus robed with siRNAs [1] | Log Po/w, Chloride [2] | LogPo/w [3]
1 | CCCCCCCCCCCCCCCCCC[N+](C)(C)Cc1ccccc1 [BDSA chloride, benzyl dimethyl stearyl ammonium] | more toxic as free salts | 3.23^3 | 
2 | C[N+](C)(C)CCO |  |  | −3.32
3 | CCCCCCCC[N+](C)(C)Cc1ccccc1 [BDOA chloride, benzyl dimethyl octyl ammonium] | more toxic as free salts |  | 
4 | CCCCCCCCCCCCCC[N+](C)(C)Cc1ccccc1 [BDTA chloride, benzyl dimethyl tetradecyl ammonium] | more toxic as free salts | 1.81^2 | 
5 | CCCCCCCCCCCCCC[N+](C)(C)C.[Br-] |  |  | 2.14
